Consider 25 compounds from patent publication US12667572B2, “Tricyclic compounds useful in the treatment of cancer, autoimmune and inflammatory disorders” (SCHRÖDINGER, INC., priority 2021, dated 2026).

The assay addresses T1, full-length MALT1 protein His-MALT1(1-824) (Homo sapiens, UniProt Q9UDY8).
T1 construct: full-length MALT1 protein His-MALT1(1-824); His (N); made in house; host or cells: baculovirus-infected insect cells
T1 sequence (Q9UDY8 1-824): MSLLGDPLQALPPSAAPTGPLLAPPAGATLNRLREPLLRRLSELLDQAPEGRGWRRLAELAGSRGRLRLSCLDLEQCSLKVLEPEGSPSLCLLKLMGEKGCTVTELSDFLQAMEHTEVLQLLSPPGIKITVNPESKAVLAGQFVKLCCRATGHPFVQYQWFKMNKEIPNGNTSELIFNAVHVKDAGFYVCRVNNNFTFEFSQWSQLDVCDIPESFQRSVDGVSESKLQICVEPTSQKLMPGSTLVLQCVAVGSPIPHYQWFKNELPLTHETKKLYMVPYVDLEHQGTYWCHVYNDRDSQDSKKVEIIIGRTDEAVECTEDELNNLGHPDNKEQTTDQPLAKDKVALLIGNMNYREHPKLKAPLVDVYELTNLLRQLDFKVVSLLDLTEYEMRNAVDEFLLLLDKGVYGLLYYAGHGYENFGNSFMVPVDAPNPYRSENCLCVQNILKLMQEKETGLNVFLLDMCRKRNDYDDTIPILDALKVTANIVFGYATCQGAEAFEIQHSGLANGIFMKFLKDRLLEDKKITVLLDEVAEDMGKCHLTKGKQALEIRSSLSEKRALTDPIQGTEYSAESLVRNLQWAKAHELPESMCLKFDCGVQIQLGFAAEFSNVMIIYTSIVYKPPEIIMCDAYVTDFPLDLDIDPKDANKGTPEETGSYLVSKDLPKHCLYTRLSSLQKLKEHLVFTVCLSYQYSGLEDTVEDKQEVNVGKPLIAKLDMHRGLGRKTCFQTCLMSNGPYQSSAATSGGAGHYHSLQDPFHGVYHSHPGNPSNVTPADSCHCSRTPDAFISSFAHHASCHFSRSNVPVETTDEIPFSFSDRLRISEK
The assay can be described thus: MALT1 protease assay, Assay 2 (1 nM MALT1, Ac-LRSR-AMC substrate). It counts as biochemical. The following applies: 1 nM MALT1, 50 μM Ac-LRSR-AMC, 2 h pre-incubation, 8 hr incubation at RT. A digest of the protocol: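 Compounds (0.1% DMSO final) sat 2 h at RT with insect-cell-expressed His-MALT1(1-824), in 50 mM Tris pH 7.5, 600 mM sodium citrate, 1 mM DTT, 1 mM EDTA, 0.05% BSA. Cleavage of 50 μM Ac-LRSR-AMC (Km ~100 μM) ran 8 h at RT, read as AMC fluorescence. IC50 and Hill coefficient fitted to % remaining activity.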

Usually IC50 stands for the concentration that gives 50% inhibition. Read a low IC50 as higher potency. Compound `CC(C)(O)c1ncc(NC(=O)C2CC3(CCC3)c3c2cnc2cc(F)nn32)cc1C(F)(F)F` (single isomer, unassigned) [Example 153, 2′-fluoro-N-(6-(2-hydroxypropan-2-yl)-5-(trifluoromethyl)pyridin-3-yl)-6′,7′-dihydrospiro[cyclobutane-1,8′-cyclopenta[e]pyrazolo[1,5-a]pyrimidine]-6′-carboxamide] registered an IC50 of at least 1000 nM.

In turn, `CNC(=O)c1ncc(NC(=O)[C@@H]2CC(C)(C)c3c2cnc2cc(Cl)nn32)cc1C(F)(F)F` (single isomer, unassigned) [Example 154, 2-chloro-8,8-dimethyl-N-(6-(methylcarbamoyl)-5-(trifluoromethyl)pyridin-3-yl)-7,8-dihydro-6H-cyclopenta[e]pyrazolo[1,5-a]pyrimidine-6-carboxamide] gave an IC50 of at least 1000 nM.

The compound `CNC(=O)c1ncc(NC(=O)C2CC(C)(C)c3c2cnc2cc(Cl)nn32)cc1C(F)(F)F` (single isomer, unassigned) [Example 155, 2-chloro-8,8-dimethyl-N-(6-(methylcarbamoyl)-5-(trifluoromethyl)pyridin-3-yl)-7,8-dihydro-6H-cyclopenta[e]pyrazolo[1,5-a]pyrimidine-6-carboxamide] returned an IC50 of 10 to 100 nM.

With `Cc1cc2cc(F)c3c(n2n1)C(C)(C)C[C@H]3C(=O)Nc1cnc(-n2nccn2)c(Cl)c1` (single isomer, unassigned) [Example 156, N-(5-chloro-6-(2H-1,2,3-triazol-2-yl)pyridin-3-yl)-5-fluoro-2,8,8-trimethyl-7,8-dihydro-6H-cyclopenta[e]pyrazolo[1,5-a]pyridine-6-carboxamide], the IC50 is at least 1000 nM.

In turn, `C[C@H](O)c1cnn(-c2ncc(NC(=O)[C@@H]3CC4(CCC4)c4c3cnc3cc(Cl)nn43)cc2Cl)n1` (single isomer, unassigned) [Example 159] returned an IC50 of at least 1000 nM.

On to `C[C@@H](O)c1cnn(-c2ncc(NC(=O)[C@@H]3CC4(CCC4)c4c3cnc3cc(Cl)nn43)cc2Cl)n1` (single isomer, unassigned) [Example 161], for which the half-maximal inhibitory concentration (IC50) was at least 1000 nM.

Compound `CCO[C@@]1(C(F)(F)F)C[C@@H](C(=O)Nc2cnc(-n3nccn3)c(Cl)c2)c2cnc3cc(Cl)nn3c21` (single isomer, unassigned) [Example 167, (cis)-2-chloro-N-(5-chloro-6-(2H-1,2,3-triazol-2-yl)pyridin-3-yl)-8-ethoxy-8-(trifluoromethyl)-7,8-dihydro-6H-cyclopenta[e]pyrazolo[1,5-a]pyrimidine-6-carboxamide] returned an IC50 of 100 to 1000 nM.

`CCO[C@@]1(C(F)(F)F)C[C@H](C(=O)Nc2cnc(-n3nccn3)c(Cl)c2)c2cnc3cc(Cl)nn3c21` (single isomer, unassigned) [Example 168, (trans)-2-chloro-N-(5-chloro-6-(2H-1,2,3-triazol-2-yl)pyridin-3-yl)-8-ethoxy-8-(trifluoromethyl)-7,8-dihydro-6H-cyclopenta[e]pyrazolo[1,5-a]pyrimidine-6-carboxamide]: the IC50 lay in the range of 100 to 1000 nM.

In turn, `CC1(C)C[C@@H](C(=O)Nc2cc(C#N)c(OC(F)F)cn2)c2cnc3cc(F)nn3c21` (single isomer, unassigned) [Example 169] showed an IC50 of at least 1000 nM.

With `CC1(C)C[C@H](C(=O)Nc2cc(C#N)c(OC(F)F)cn2)c2cnc3cc(F)nn3c21` (single isomer, unassigned) [Example 170], the IC50 fell in the range of 10 to 100 nM.

In turn, `CC1(C)C[C@@H](C(=O)Nc2cnc(C(=O)NC3CC3)c(C(F)F)c2)c2cnc3cc(Cl)nn3c21` (single isomer, unassigned) [Example 172] displayed an IC50 of at least 1000 nM.

Compound `CC1(C)C[C@H](C(=O)Nc2cnc(C(=O)NC3CC3)c(C(F)F)c2)c2cnc3cc(Cl)nn3c21` (single isomer, unassigned) [Example 173] had an IC50 of 10 to 100 nM.

Consider `Cc1cc(NC(=O)[C@@H]2CC(C)(C)c3c2cnc2cc(Cl)nn32)cnc1-n1nccn1` (single isomer, unassigned) [Example 180], for which the IC50 was at least 1000 nM.

Take `Cc1cc(NC(=O)[C@@H]2CC(C)(C)c3c2cnc2cc(Cl)nn32)cnc1-n1nccn1` (single isomer, unassigned) [Example 181]: the IC50 is 10 to 100 nM.

The compound `Cc1cc(NC(=O)[C@@H]2CC(C)(C)c3c2cnc2cc(F)nn32)cnc1-n1nccn1` (single isomer, unassigned) [Example 182] yielded an IC50 of at least 1000 nM.

`Cc1cc(NC(=O)[C@H]2CC(C)(C)c3c2cnc2cc(F)nn32)cnc1-n1nccn1` (single isomer, unassigned) [Example 183] gave an IC50 of 10 to 100 nM.

`C[C@]1(C(F)(F)F)C[C@@H](C(=O)Nc2cnc(-n3nccn3)c(Cl)c2)c2cnc3cc(F)nn3c21` (single isomer, unassigned) [Example 184] had an IC50 of 100 to 1000 nM.

The compound `C[C@@]1(C(F)(F)F)C[C@@H](C(=O)Nc2cnc(-n3nccn3)c(Cl)c2)c2cnc3cc(F)nn3c21` (single isomer, unassigned) [Example 185] displayed an IC50 of under 10 nM.

In turn, `C[C@@]1(C(F)(F)F)C[C@@H](C(=O)Nc2cnc(-n3nccn3)c(Cl)c2)c2cnc3cc(F)nn3c21` (single isomer, unassigned) [Example 186] registered an IC50 of 100 to 1000 nM.

`C[C@]1(C(F)(F)F)C[C@H](C(=O)Nc2cnc(-n3nccn3)c(Cl)c2)c2cnc3cc(F)nn3c21` (single isomer, unassigned) [Example 187] yielded an IC50 of 10 to 100 nM.

The compound `Cc1cn2ncc3c(c2n1)C(C)(C)C[C@H]3C(=O)Nc1cnc(-n2nccn2)c(Cl)c1` (single isomer, unassigned) [Example 188, N-(5-chloro-6-(2H-1,2,3-triazol-2-yl)pyridin-3-yl)-2,9,9-trimethyl-8,9-dihydro-7H-cyclopenta[d]imidazo[1,2-b]pyridazine-7-carboxamide] came in with an IC50 of 100 to 1000 nM.

The compound `CC1(C)C[C@@H](C(=O)Nc2cnc(OC(F)F)c(Cl)c2)c2cnn3cc(Cl)nc3c21` (single isomer, unassigned) [Example 190, 2-chloro-N-(5-chloro-6-(difluoromethoxy)pyridin-3-yl)-9,9-dimethyl-8,9-dihydro-7H-cyclopenta[d]imidazo[1,2-b]pyridazine-7-carboxamide] displayed an IC50 of 100 to 1000 nM.

In the case of `CC1(C)C[C@@H](C(=O)Nc2cnc(-n3nccn3)c(C(F)(F)F)c2)c2cnn3cc(Cl)nc3c21` (single isomer, unassigned) [Example 192, N-(6-(2H-1,2,3-triazol-2-yl)-5-(trifluoromethyl)pyridin-3-yl)-2-chloro-9,9-dimethyl-8,9-dihydro-7H-cyclopenta[d]imidazo[1,2-b]pyridazine-7-carboxamide], the IC50 is 100 to 1000 nM.

With `CC1(C)C[C@@H](C(=O)Nc2cnc(-n3nccn3)c(Cl)c2)c2cnn3cc(Cl)nc3c21` (single isomer, unassigned) [Example 194, 2-chloro-N-(5-chloro-6-(2H-1,2,3-triazol-2-yl)pyridin-3-yl)-9,9-dimethyl-8,9-dihydro-7H-cyclopenta[d]imidazo[1,2-b]pyridazine-7-carboxamide], the IC50 was in the range of 100 to 1000 nM.

Compound `CC1(C)C[C@@H](C(=O)Nc2cnc(-n3nccn3)c(C#N)c2)c2cnn3cc(C(F)F)nc3c21` (single isomer, unassigned) [Example 196, N-(5-cyano-6-(2H-1,2,3-triazol-2-yl)pyridin-3-yl)-2-(difluoromethyl)-9,9-dimethyl-8,9-dihydro-7H-cyclopenta[d]imidazo[1,2-b]pyridazine-7-carboxamide] showed an IC50 of 100 to 1000 nM.
